Tests used:
[1] = Metal chelating activity assessed as Cu2+-compound complex formation by measuring binding constant in 0.1 M KNO3 at 25 degreeC
[2] = Metal chelating activity assessed as Zn2+-compound complex formation by measuring binding constant in 0.1 M KNO3 at 25 degreeC

c1ccc(CNCc2ccccn2)nc1
log K [1]: 9.3 | log K [2]: 7.6
